In the test the target is T1, human FSH receptor (Homo sapiens, UniProt P23945).
T1 construct: expressed in transfected cells; host or cells: CHO (Chinese Hamster Ovary) cells, stably transfected, cotransfected with CRE-luciferase reporter
T1 sequence (P23945 18-695): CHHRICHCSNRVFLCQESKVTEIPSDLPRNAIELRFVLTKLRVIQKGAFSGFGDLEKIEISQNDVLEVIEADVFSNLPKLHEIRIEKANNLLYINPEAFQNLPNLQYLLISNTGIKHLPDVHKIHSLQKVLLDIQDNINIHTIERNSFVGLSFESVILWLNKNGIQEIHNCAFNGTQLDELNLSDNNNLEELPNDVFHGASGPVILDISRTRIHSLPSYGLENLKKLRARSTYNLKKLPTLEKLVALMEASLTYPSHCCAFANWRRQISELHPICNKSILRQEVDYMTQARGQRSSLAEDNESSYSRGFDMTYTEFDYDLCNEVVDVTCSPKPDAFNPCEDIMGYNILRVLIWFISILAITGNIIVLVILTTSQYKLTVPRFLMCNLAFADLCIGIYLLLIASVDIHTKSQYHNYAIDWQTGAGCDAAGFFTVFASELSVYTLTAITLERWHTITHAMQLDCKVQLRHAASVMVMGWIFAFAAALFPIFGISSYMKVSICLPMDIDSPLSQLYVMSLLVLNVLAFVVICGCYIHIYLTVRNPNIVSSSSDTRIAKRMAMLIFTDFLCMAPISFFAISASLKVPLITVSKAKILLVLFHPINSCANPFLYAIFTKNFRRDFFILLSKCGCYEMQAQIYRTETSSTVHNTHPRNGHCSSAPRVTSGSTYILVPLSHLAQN
In words: Agonistic activity at the human FSH receptor expressed in CHO cells (CRE-luciferase reporter). It is filed as cell-based. Conditions: CHO cells stably transfected with human FSH receptor and CRE/luciferase reporter, 4 hours incubation, pEC50 is -log EC50; for EC50: read-out: hFSHRago (CHO luc) pEC50 (converted). The source says:
The term EC50 means the concentration of the test compound that elicits half-maximal (50%) stimulation compared to the compound's maximally attainable effect. pEC50 is the negative log of EC50. The values can be determined e.g. in a cell line transfected with a FSH receptor gene and cotransfected with a cAMP responsive element/promoter directing the expression of a reporter gene. For the determination a software program such as MathIQ (version 2.0, ID Business Solutions Limited) can be used.
Agonistic activity of the compounds at the human FSH receptor was determined in Chinese Hamster Ovary (CHO) cells stably transfected with the human FSH receptor and cotransfected with a cAMP responsive element (CRE)/promotor directing the expression of a firefly luciferase reporter gene. Binding of the compounds to the Gs protein-coupled FSH receptor will result in an increase of cAMP, which in turn will induce an increased transactivation of the luciferase reporter. Cells (7,500 cells/well of a 384 well plate) were incubated in Dulbecco' minimal essential F12 modified medium (Invitrogen), supplemented with 1 μg/ml bovine insulin, 5 μg/ml human apo-transferrin, 80 U/ml penicillin G and 80 μg/ml streptomycin with the test compounds (concentration between 0.0316 nM and 10.0 μM) in duplicate in a humidified atmosphere (95%) at 5-7% CO2 and 37° C. The final concentration of DMSO was 1%. After 4 hours of incubation, plates were allowed to adjust to room temperature for 1 hour. Then, Luclite (PerkinElmer) solution was added to the wells and cells were allowed to lyse for at least 1 hour at room temperature. Subsequently, luciferase activity was measured in a luminescence counter. The signal is expressed as counts per second (cps). The EC50 (concentration of the test compound that elicits half-maximal (50%) luciferase stimulation compared to the compound's maximally attainable effect) and efficacy values (maximal effect of the test compound as percentage of the maximal effect of recombinant human FSH) of the compounds were determined using the software program MathIQ (version 2.0, ID Business Solutions Limited). pEC50 data (pEC50 is −log EC50) are indicated at the synthesis examples.

Turning to `COc1cc2c(cc1[N+](=O)[O-])-c1c(-c3cccs3)c3c(n1CC2)C(=O)N(C(C)(C)C)CC3` [Compound 1i, 9-tert-butyl-3-methoxy-2-nitro-12-(2-thienyl)-5,6,10,11-tetrahydropyrido[4′,3′:4,5]pyrrolo[2,1-a]isoquinolin-8(9H)-one], the EC50 is 100 nM.
The same measure, in the same setting: the figure for `COc1cc2c(cc1[N+](=O)[O-])-c1c(-c3cccs3)c3c(n1CC2)C(=O)N(C(C)(C)C)CCC3` [Compound 2h, 9-tert-butyl-2-nitro-3-methoxy-13-(2-thienyl)-5,6,9,10,11,12-hexahydro-8H-azepino[4′,3′:4,5]pyrrolo[2,1-a]isoquinolin-8-one] is 34.7 nM.
Consider `CCn1nnc(-c2cc3c(cc2OC)CCn2c4c(c(-c5cccs5)c2-3)CCCN(C(C)(C)C)C4=O)n1` [Compound 3e, 9-tert-butyl-2-(2-ethyl-2H-tetrazol-5-yl)-3-methoxy-13-(2-thienyl)-5,6,9,10,11,12-hexahydro-8H-azepino[4′,3′:4,5]pyrrolo[2,1-a]isoquinolin-8-one], for which the EC50 is 36.3 nM.
Still for that read-out and setting: as for `COc1cc2c(cc1NC(=O)C(C)C)-c1c(-c3cccs3)c3c(n1CC2)C(=O)N(C(C)(C)C)CCC3` [Compound 3f, 9-tert-butyl-2-isobutyramido-3-methoxy-13-(2-thienyl)-5,6,9,10,11,12-hexahydro-8H-azepino[4′,3′:4,5]pyrrolo[2,1-a]isoquinolin-8-one], the figure is 126 nM.
As to `COc1cc2c(cc1-c1ncco1)-c1c(-c3cccs3)c3c(n1CC2)C(=O)N(C(C)(C)C)CCC3` [Compound 4f, 9-tert-butyl-2-(oxazol-2-yl)-3-methoxy-13-(2-thienyl)-5,6,9,10,11,12-hexahydro-8H-azepino[4′,3′:4,5]pyrrolo[2,1-a]isoquinolin-8-one], the EC50 was 11.5 nM.
Same read-out and setting: as for `COc1cc2c(cc1-c1cccnc1)-c1c(-c3cccs3)c3c(n1CC2)C(=O)N(C(C)(C)C)CCC3` [Compound 4g, 9-tert-butyl-2-(pyridin-3-yl)-3-methoxy-13-(2-thienyl)-5,6,9,10,11,12-hexahydro-8H-azepino[4′,3′:4,5]pyrrolo[2,1-a]isoquinolin-8-one], the figure is 4.17 nM.
On to `COc1cc2c(cc1-c1ccn(C)n1)-c1c(-c3cccs3)c3c(n1CC2)C(=O)N(C(C)(C)C)CCC3` [Compound 4h], for which the “hFSHRago (CHO luc) pEC50” value was found to be 7.19.
Same read-out and setting: as for `CC(C)(C)N1CCCc2c(-c3cccs3)c3n(c2C1=O)CCc1ccc(-c2cnccn2)cc1-3` [Compound 4i], the figure is 7.86.
With `COc1cc2c(cc1OC(C)C)-c1c(-c3cccs3)c3c(n1CC2)C(=O)N(C(C)(C)C)CCC3` [Compound 6e], the EC50 was 11 nM.
On the same count and under the same terms, as for `COc1cc2c(cc1OC(C)C)-c1c(-c3cccs3)c3c(n1CC2)C(=O)N(C(C)C)CCC3` [Compound 6f], the figure is 50.1 nM; as for `COc1cc2c(cc1-c1cccnc1)-c1c(-c3cccs3)c3c(n1CC2)C(=O)N(C(C)(C)C)CCCOC3` [Compound 7l, 9-tert-butyl-3-methoxy-2-pyridin-3-yl-15-(2-thienyl)-5,6,9,10,11,12-hexahydro[1,5]oxazonino[8′,7′:4,5]pyrrolo[2,1-a]isoquinolin-8(14H)-one], 2.82 nM.
Same read-out and setting: the figure for `COc1cc2c(cc1-c1cnccn1)-c1c(-c3cccs3)c3c(n1CC2)C(=O)N(C(C)(C)C)CCCOC3` [Compound 7m, 9-tert-butyl-3-methoxy-2-pyrazin-2-yl-15-(2-thienyl)-5,6,9,10,11,12-hexahydro[1,5]oxazonino[8′,7′:4,5]pyrrolo[2,1-a]isoquinolin-8(14H)-one] is 17.8 nM.
Turning to `COc1cc2c(cc1-c1cccnc1)-c1c(-c3cncs3)c3c(n1CC2)C(=O)N(C(C)(C)C)CCCOC3` [Compound 8f, 9-tert-butyl-3-methoxy-2-pyridin-3-yl-15-(1,3-thiazol-5-yl)-5,6,9,10,11,12-hexahydro[1,5]oxazonino[8′,7′:4,5]pyrrolo[2,1-a]isoquinolin-8(14H)-one], the EC50 is 14.1 nM.
On the same count and under the same terms, as for `COc1cc2c(cc1-c1cnccn1)-c1c(-c3cncs3)c3c(n1CC2)C(=O)N(C(C)(C)C)CCCOC3` [Compound 8g, 9-tert-butyl-3-methoxy-2-pyrazin-2-yl-15-(1,3-thiazol-5-yl)-5,6,9,10,11,12-hexahydro[1,5]oxazonino[8′,7′:4,5]pyrrolo[2,1-a]isoquinolin-8(14H)-one], the figure is 120 nM.
Take `COc1cc2c(cc1-c1cccnc1)-c1c(-c3cccs3)c3c(n1CC2)C(=O)N(C(C)C)CCN(C(C)=O)C3` [Compound 10p, 12-acetyl-9-isopropyl-3-methoxy-2-pyridin-3-yl-14-(2-thienyl)-5,6,10,11,12,13-hexahydro[1,4]diazocino[6′,7′:4,5]pyrrolo[2,1-a]isoquinolin-8(9H)-one]: the EC50 is 5.25 nM.
The same measure, in the same setting: the figure for `COc1cc2c(cc1-c1c(C)nn(C)c1C)-c1c(-c3cccs3)c3c(n1CC2)C(=O)N(C(C)C)CCNC3` [Compound 10q, 9-isopropyl-3-methoxy-2-(1,3,5-trimethyl-1H-pyrazol-4-yl)-14-(2-thienyl)-5,6,10,11,12,13-hexahydro[1,4]diazocino[6′,7′:4,5]pyrrolo[2,1-a]isoquinolin-8(9H)-one] is 257 nM.
The same measure, in the same setting: the figure for `COc1cc2c(cc1-c1c(C)nn(C)c1C)-c1c(-c3cccs3)c3c(n1CC2)C(=O)N(C(C)C)CCN(C(C)=O)C3` [Compound 10r, 12-acetyl-9-isopropyl-3-methoxy-14-(2-thienyl)-2-(1,3,5-trimethyl-1H-pyrazol-4-yl)-5,6,10,11,12,13-hexahydro[1,4]diazocino[6′,7′:4,5]pyrrolo[2,1-a]isoquinolin-8(9H)-one] is 162 nM.
Still for that read-out and setting: as for `COc1cc2c(cc1-c1c(C)nn(C)c1C)-c1c(-c3cccs3)c3c(n1CC2)C(=O)N(C(C)C)CCN(C(=O)C(C)C)C3` [Compound 10s, 12-isobutyryl-9-isopropyl-3-methoxy-14-(2-thienyl)-2-(1,3,5-trimethyl-1H-pyrazol-4-yl)-5,6,10,11,12,13-hexahydro[1,4]diazocino[6′,7′:4,5]pyrrolo[2,1-a]isoquinolin-8(9H)-one], the figure is 5010 nM.
For the compound `COc1cc2c(cc1-c1c(C)nn(C)c1C)-c1c(-c3cccs3)c3c(n1CC2)C(=O)N(C(C)C)CCN(C(=O)CCC(F)(F)F)C3` [Compound 10t, 9-isopropyl-3-methoxy-14-(2-thienyl)-12-(4,4,4-trifluorobutanoyl)-2-(1,3,5-trimethyl-1H-pyrazol-4-yl)-5,6,10,11,12,13-hexahydro[1,4]diazocino[6′,7′:4,5]pyrrolo[2,1-a]isoquinolin-8(9H)-one], the EC50 is 977 nM.
On the same count and under the same terms, the figure for `COc1cc2c(cc1-c1cccnc1)-c1c(-c3cccs3)c3c(n1CC2)C(=O)N(C(C)C)CCN(C(=O)C(C)C)C3` [Compound 10w, 9-isopropyl-3-methoxy-12-isobutyryl-14-(2-thienyl)-2-pyridin-3-yl-5,6,10,11,12,13-hexahydro[1,4]diazocino[6′,7′:4,5]pyrrolo[2,1-a]isoquinolin-8(9H)-one] is 759 nM.
The same measure, in the same setting: as for `COc1cc2c(cc1-c1ncco1)-c1c(-c3cccs3)c3c(n1CC2)C(=O)N(C(C)C)CCN(C(=O)C(C)C)C3` [Compound 10x, 9-isopropyl-3-methoxy-12-isobutyryl-14-(2-thienyl)-2-oxazol-2-yl-5,6,10,11,12,13-hexahydro[1,4]diazocino[6′,7′:4,5]pyrrolo[2,1-a]isoquinolin-8(9H)-one], the figure is 1260 nM.

The record behind these values is patent publication US8431564B2 (Merck Sharp & Dohme B.V., priority 2009, dated 2013).
